According to patent US9605003B2, “Heterocyclic compounds and uses thereof” (Infinity Pharmaceuticals, Inc., priority 2011, dated 2017):
Where a name gives a salt, the structure may show the parent alone.

Key:
NZB/W model = settings: prophylactic and therapeutic model; cited from earlier work
PI3Kβ = molecular target: T1, PI3Kβ (Homo sapiens, UniProt P42338); assay: PI3 Kinase HTRF assay, PI3Kβ; assay type: biochemical; settings: Between 1 μM and 10 μM; read-out: PI3K β IC50
T1 construct: purchased Millipore Corporation 14-603-K
Excerpt: (§1) A PI3-Kinase HTRF® assay kit (cat No. 33-016) purchased from Millipore Corporation was used to screen compounds provided herein. This assay used specific, high affinity binding of the GRP1 pleckstrin homology (PH) domain to PIP3, the product of a Class 1A or 1B PI3 Kinase acting on its physiological substrate PIP2. During the detection phase of the assay, a complex was generated between the GST-tagged PH domain and biotinylated short chain PIP3. The biotinylated PIP3 and the GST-tagged PH domain recruited fluorophores (Streptavidin-Allophycocyanin and Europium-labeled anti-GST respectively) to form the fluorescence resonance energy transfer (FRET) architecture, generating a stable time-resolved FRET signal. The FRET complex was disrupted in a competitive manner by non-biotinylated PIP3, a product formed in the PI3 Kinase assay.
(§2) PI3 Kinase α, β, γ and δ activity was assayed using the PI3 Kinase HTRF® assay kit (catalogue No. 33-016) purchased from Millipore Corporation. Purified recombinant PI3Kα (catalogue No. 14-602-K), PI3Kβ (catalogue No. 14-603-K), PI3Kγ (catalogue No. 14-558-K) and PI3Kδ (catalogue No. 14-604-K) were obtained from Millipore Corporation. Purified recombinant PI3K enzyme was used to catalyze the phosphorylation of phosphatidylinositol 4,5-bisphosphate (PIP2 at 10 μM) to phosphatidylinositol 3,4,5-trisphosphate (PIP3) in the presence of 10 μM ATP. The assay was carried out in 384-well format and detected using a Perkin Elmer EnVision Xcite Multilabel Reader. Emission ratios were converted into percent inhibitions and imported into GraphPad Prism software. The concentration necessary to achieve inhibition of enzyme activity by 50% (IC50) was calculated using concentrations ranging from 20 μM to 0.1 nM (12-point curve). IC50 values were determined using a nonlinear regression model available in GraphPad Prism 5.

Balb/c splenic B cells = assay: B cell activation and proliferation assay (Alamar Blue); assay type: cell-based; settings: Mus musculus
Method: The ability of one or more subject compounds to inhibit B cell activitation and proliferation is determined according to standard procedures known in the art. For example, an in vitro cellular proliferation assay is established that measures the metabolic activity of live cells. The assay is performed in a 96 well microtiter plate using Alamar Blue reduction. Balb/c splenic B cells are purified over a Ficoll-Paque™ PLUS gradient followed by magnetic cell separation using a MACS B cell Isolation Kit (Miletenyi). Cells are plated in 90 μl at 50,000 cells/well in B Cell Media (RPMI+10% FBS+Penn/Strep+50 μM bME+5 mM HEPES). A compound provided herein is diluted in B Cell Media and added in a 10 μl volume. Plates are incubated for 30 min at 37° C. and 5% CO2 (0.2% DMSO final concentration). A 50 μl B cell stimulation cocktail is then added containing either 10 μg/ml LPS or 5 μg/ml F(ab′)2 Donkey anti-mouse IgM plus 2 ng/ml recombinant mouse IL4 in B Cell Media. Plates are incubated for 72 hours at 37° C. and 5% CO2. A volume of 15 μL of Alamar Blue reagent is added to each well and plates are incubated for 5 hours at 37° C. and 5% CO2. Alamar Blue fluoresce is read at 560Ex/590Em, and IC50 or EC50 values are calculated using GraphPad Prism 5.

[1] = tested on: phospho-AKT in RAJI cells; assay: PI3Kδ selective cellular assay, phospho-AKT in anti-IgM stimulated RAJI cells; assay type: cell-based; settings: Homo sapiens; RAJI cell model
Excerpt: A compound's ability in selectively inhibiting PI3Kδ can be assessed using RAJI cells, i.e., B lymphocyte cells derived from lymphoma patients. Briefly, serum-starved RAJI cells are stimulated with anti-human IgM, thereby causing signaling through the B-cell receptors, as described in, for example, He et al., Leukemia Research (2009) 33: 798-802. B-cell receptor signaling is important for the activation, differentiation, and survival of B cells and certain B-cell derived cancers. Reduction of phospho-AKT is indicative of compounds that may inhibit B-cell proliferation and function in certain diseases. By monitoring the reduction of phospho-AKT in stimulated RAJI cells (using for example, phospho-AKT antibodies), a compound's potential efficacy in selectively inhibiting PI3Kδ can be assessed.
Certain compounds provided herein (e.g., Compounds 5, 38, 103, 105, 106, 107, 108, and 109) were tested in RAJI cell model using procedures as described above.

[2] = tested on: phospho-AKT in RAW 264.7 cells; assay: PI3Kγ selective cellular assay, phospho-AKT in C5a stimulated RAW 264.7 cells; assay type: cell-based; settings: Mus musculus, RAW264.7, RAW 264.7 cell model
Excerpt: A compound's ability in selectively inhibiting PI3Kγ can be assessed using RAW264.7 macrophages. Briefly, serum-starved PAW264.7 cells are stimulated with a known GPCR agonist C5a. (See, e.g., Camps et al., Nature Medicine (2005) 11(9): 936-943). Cells can be treated with test compounds prior to, simultaneously with, or subsequent to the stimulation by C5a. RAW 264.7 cells respond to the complement component fragment C5a through activation of the C5a receptor, and the C5a receptor activates macrophages and induces cell migration. Test compounds' ability to inhibit C5a-mediated AKT phosphorylation is indicative of selective inhibition of PI3Kγ. Thus, by monitoring the reduction of phospho-AKT in stimulated RAW 264.7 cells (using for example, phospho-AKT antibodies), a compound's potential efficacy in selectively inhibiting PI3Kγ can be assessed.
Certain compounds provided herein (e.g., Compounds 5, 38, 103, 105, 106, 107, 108, and 109) were tested in RAW 264.7 cell model using procedures as described above.

[3] = tested on: phospho-AKT in SKOV-3 cells; assay: PI3Kα selective cellular assay, phospho-AKT in SKOV-3 cells; assay type: cell-based; settings: Homo sapiens, SK-OV-3, SKOV-3 cell model
Excerpt: (§3) A compound's ability in selectively inhibiting PI3Kα can be assessed using SKOV-3 cells, i.e., human ovarian carcinoma cell line. Briefly, SKOV-3 cells, in which mutant PI3Kα is constitutively active, can be treated with test compounds. Test compounds' ability to inhibit AKT phosphorylation in SKOV-3 cells, therefore, is indicative of selective inhibition of PI3Kα. Thus, by monitoring the reduction of phospho-AKT in SKOV-3 cells (using for example, phospho-AKT antibodies), a compound's potential efficacy in selectively inhibiting PI3Kα can be assessed.
Certain compounds provided herein (e.g., Compounds 5, 38, 103, and 106) were tested in SKOV-3 cell model using procedures as described above.

[4] = tested on: phospho-AKT in 786-O cells; assay: PI3Kβ selective cellular assay, phospho-AKT in 786-O cells; assay type: cell-based; settings: Homo sapiens, 786-0, 786-O cell model
Excerpt: as §3, with “PI3Kβ” for “PI3Kα”, “786-O” for “SKOV-3”, “kidney” for “ovarian”, “PI3Kβ” for “mutant PI3Kα”, “PI3Kβ.” for “PI3Kα.”
Certain compounds provided herein (e.g., Compounds 5, 38, 103, and 106) were tested in 786-O cell model using procedures as described above.

PI3Kα = molecular target: T2, PI3Kα (Homo sapiens, UniProt P42336); assay: PI3 Kinase HTRF assay, PI3Kα; assay type: biochemical; settings: Between 1 μM and 10 μM; read-out: PI3K α IC50
T2 construct: purchased Millipore Corporation 14-602-K
Excerpt: as §1, §2

PI3Kδ = molecular target: T3, PI3Kδ (Homo sapiens, UniProt O00329); assay: PI3 Kinase HTRF assay, PI3Kδ; assay type: biochemical; settings: Between 1 μM and 10 μM; read-out: PI3K δ IC50
T3 construct: purchased Millipore Corporation 14-604-K
Excerpt: as §1, §2

PI3Kγ = molecular target: T4, PI3Kγ (Homo sapiens, UniProt P48736); assay: PI3 Kinase HTRF assay, PI3Kγ; assay type: biochemical; settings: Between 1 μM and 10 μM; read-out: PI3K γ IC50
T4 construct: purchased Millipore Corporation 14-558-K
Excerpt: as §1, §2

B6.Sle1z.Sle3z model = settings: cited from earlier work
[5] = PBS pH 7.4, 37° C., 24 hours, 5 μM; cited from earlier work
[6] = tested on: p190 transduced leukemic cells; settings: about 70 mg/kg twice daily; cited from earlier work
[7] = human plasma, 5 μM; cited from earlier work
[8] = range between 100 nM and 1 μM (bounds carry own units)

T1 sequence (P42338 whole entry): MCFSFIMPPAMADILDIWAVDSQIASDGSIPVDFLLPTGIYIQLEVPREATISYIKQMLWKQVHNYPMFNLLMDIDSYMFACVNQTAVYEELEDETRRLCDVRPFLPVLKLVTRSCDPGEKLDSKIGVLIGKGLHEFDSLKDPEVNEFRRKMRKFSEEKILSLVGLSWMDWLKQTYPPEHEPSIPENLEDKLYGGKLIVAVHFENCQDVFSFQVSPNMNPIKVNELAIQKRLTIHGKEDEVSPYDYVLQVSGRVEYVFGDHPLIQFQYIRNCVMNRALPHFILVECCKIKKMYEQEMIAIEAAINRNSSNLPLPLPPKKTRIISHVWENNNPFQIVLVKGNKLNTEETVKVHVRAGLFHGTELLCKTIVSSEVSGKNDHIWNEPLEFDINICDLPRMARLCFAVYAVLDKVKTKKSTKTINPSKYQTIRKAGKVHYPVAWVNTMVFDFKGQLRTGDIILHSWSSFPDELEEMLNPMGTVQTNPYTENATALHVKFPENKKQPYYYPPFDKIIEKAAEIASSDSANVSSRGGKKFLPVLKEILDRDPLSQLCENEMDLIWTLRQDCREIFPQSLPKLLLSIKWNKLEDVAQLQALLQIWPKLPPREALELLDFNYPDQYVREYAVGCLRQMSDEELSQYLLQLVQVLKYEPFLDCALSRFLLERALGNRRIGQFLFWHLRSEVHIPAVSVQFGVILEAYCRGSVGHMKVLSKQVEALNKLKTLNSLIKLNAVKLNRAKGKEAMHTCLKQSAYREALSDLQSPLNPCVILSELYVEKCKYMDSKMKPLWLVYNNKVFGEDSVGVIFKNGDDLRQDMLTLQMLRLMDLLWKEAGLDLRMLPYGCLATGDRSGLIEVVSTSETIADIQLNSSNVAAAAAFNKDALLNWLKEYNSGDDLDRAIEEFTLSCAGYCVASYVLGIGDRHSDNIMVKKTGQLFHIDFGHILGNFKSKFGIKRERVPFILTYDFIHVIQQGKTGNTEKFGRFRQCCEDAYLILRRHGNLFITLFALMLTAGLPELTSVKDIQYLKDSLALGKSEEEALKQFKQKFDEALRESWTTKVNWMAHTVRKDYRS
T1 sequence (P27986 2-724 partner limits assumed): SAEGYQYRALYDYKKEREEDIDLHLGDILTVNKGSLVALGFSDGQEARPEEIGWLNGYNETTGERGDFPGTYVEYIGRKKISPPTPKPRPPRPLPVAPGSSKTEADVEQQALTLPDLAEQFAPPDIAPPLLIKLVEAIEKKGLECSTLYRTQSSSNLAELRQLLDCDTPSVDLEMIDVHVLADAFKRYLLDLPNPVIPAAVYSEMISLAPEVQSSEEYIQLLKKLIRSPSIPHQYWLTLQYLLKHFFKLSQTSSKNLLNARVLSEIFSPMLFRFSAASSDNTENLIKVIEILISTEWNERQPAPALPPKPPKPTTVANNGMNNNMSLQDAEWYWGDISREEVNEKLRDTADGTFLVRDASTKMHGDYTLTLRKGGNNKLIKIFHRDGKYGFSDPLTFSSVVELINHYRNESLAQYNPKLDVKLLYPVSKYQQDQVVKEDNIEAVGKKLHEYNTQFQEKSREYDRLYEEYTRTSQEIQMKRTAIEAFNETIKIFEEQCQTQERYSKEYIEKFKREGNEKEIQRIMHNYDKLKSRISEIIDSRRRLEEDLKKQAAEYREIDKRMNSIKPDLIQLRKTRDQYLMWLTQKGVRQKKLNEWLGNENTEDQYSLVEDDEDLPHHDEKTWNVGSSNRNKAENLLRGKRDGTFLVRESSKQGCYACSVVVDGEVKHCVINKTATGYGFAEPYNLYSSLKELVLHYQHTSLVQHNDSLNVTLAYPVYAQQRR
T3 sequence (O00329 whole entry): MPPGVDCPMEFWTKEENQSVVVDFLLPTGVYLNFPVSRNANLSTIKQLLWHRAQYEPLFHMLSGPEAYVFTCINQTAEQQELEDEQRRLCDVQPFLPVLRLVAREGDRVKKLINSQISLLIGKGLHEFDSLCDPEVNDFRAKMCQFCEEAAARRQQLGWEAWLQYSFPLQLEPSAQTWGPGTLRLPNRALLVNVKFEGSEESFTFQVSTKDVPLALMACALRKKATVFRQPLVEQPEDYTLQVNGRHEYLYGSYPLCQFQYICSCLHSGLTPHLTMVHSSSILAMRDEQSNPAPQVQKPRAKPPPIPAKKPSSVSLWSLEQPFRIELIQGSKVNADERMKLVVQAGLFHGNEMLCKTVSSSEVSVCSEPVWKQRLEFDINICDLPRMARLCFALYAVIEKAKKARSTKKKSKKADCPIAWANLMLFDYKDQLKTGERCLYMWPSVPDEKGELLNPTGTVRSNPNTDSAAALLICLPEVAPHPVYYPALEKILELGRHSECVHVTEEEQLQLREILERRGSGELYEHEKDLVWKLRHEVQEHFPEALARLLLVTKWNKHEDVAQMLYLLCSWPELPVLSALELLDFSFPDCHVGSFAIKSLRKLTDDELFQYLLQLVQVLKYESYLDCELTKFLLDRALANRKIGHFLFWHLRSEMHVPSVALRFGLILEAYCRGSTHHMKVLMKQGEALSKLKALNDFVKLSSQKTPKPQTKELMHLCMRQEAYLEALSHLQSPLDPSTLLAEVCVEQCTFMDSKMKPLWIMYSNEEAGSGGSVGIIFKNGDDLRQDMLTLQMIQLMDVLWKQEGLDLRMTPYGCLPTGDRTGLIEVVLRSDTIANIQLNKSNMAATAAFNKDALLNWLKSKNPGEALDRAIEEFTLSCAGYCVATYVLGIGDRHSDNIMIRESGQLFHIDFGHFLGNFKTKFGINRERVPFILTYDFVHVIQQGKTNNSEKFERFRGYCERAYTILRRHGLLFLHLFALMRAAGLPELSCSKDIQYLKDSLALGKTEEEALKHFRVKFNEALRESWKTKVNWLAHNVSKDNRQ
T3 sequence (P27986 whole entry partner): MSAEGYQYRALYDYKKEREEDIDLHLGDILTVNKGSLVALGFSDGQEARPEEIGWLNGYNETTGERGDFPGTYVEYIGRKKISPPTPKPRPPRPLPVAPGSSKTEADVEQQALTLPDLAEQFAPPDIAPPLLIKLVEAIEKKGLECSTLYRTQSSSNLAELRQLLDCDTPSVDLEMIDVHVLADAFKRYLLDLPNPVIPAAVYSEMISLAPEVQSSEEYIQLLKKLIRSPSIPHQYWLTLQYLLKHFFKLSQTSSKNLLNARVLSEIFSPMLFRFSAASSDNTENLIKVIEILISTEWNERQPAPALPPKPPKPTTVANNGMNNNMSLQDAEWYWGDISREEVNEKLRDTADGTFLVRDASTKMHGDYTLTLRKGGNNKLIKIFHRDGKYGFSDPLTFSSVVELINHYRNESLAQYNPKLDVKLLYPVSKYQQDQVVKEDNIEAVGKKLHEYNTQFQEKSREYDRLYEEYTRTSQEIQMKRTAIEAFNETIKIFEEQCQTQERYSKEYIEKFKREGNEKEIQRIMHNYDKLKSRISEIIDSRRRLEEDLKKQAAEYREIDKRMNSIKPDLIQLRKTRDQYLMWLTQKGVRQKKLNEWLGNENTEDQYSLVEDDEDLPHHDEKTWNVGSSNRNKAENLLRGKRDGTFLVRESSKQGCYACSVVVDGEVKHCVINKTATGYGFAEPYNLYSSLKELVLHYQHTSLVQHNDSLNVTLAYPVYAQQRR
T4 sequence (P48736 whole entry): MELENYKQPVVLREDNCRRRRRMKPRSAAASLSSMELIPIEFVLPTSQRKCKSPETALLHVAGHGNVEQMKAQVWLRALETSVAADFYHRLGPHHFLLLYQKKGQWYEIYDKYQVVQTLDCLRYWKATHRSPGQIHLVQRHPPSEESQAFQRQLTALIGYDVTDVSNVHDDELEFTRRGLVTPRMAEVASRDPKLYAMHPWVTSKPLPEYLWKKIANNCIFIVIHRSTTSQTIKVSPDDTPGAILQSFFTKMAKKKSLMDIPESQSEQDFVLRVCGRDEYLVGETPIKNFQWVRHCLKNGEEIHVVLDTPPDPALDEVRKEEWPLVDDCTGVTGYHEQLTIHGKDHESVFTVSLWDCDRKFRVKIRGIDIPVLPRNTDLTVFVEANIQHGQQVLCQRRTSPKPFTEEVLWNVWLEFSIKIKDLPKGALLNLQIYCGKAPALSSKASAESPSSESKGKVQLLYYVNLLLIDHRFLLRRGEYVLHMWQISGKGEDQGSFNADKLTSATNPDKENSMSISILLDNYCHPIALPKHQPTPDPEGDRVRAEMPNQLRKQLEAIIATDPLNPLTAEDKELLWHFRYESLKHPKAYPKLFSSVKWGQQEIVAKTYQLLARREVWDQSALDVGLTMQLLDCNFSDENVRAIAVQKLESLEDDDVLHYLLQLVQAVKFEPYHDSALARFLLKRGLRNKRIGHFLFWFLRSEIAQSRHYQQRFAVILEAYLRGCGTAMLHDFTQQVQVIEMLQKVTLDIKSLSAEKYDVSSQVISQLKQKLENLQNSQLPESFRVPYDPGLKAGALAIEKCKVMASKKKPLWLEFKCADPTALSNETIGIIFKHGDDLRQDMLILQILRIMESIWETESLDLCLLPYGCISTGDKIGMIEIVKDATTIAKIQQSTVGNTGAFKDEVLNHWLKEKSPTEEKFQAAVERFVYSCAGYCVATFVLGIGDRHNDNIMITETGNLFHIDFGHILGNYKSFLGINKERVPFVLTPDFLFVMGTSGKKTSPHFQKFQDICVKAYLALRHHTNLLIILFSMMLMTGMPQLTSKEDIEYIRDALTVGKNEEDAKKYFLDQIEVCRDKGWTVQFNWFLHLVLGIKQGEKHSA

Question: For CC(C)C[C@H](NC(=O)[C@H](Cc1ccccc1)NC(=O)c1cnccn1)B(O)O [Bortezimib, bortezomib], which “disease in NZB/W model” value (NZB/W model) is on record?
Answer: Its value is “effective at blocking disease”.

Question: Which results are given for C[C@H](Nc1ncnc2scnc12)c1cc2cccc(-c3cnn(C)c3)c2c(=O)n1-c1ccccc1 [Compound 5]?
Answer: IC50 (PI3Kβ): 1 to 10 µM; EC50 (Balb/c splenic B cells; Less than 100 nanoMolar): < 0.1 µM; IC50 [1]: < 0.1 µM; IC50 [2]: < 0.1 µM; IC50 [3, 8]: 0.1 to 1 µM; IC50 [4]: 1 to 10 µM

Question: What does the source list for COc1ncc(-c2cccc3cc([C@H](C)Nc4ncnc5scnc45)n(-c4ccccc4)c(=O)c23)cn1 [Compound 38]?
Answer: IC50 (PI3Kα): 1 to 10 µM; IC50 (PI3Kβ): 1 to 10 µM; EC50 (Balb/c splenic B cells; Less than 100 nanoMolar): < 0.1 µM; IC50 [1]: < 0.1 µM; IC50 [2, 8]: 0.1 to 1 µM; IC50 [3]: 1 to 10 µM; IC50 [4]: 1 to 10 µM

Question: For C[C@H](Nc1ncnc2scnc12)c1cc2cccc(-c3cnc4c(c3)CCCC4)c2c(=O)n1-c1ccccc1 [Compound 59], which IC50 (PI3Kδ) is on record?
Answer: The IC50 was 1 to 10 µM.

Question: What about the IC50 (PI3Kγ) of the same compound?
Answer: Its IC50 is 1 to 10 µM.

Question: What about the EC50 (Balb/c splenic B cells; Between 1 μM and 10 μM) of the same compound?
Answer: Its EC50 is 1 to 10 µM.

Question: With Cc1nc2c(N[C@@H](C)c3cc4cccc(Cl)c4c(=O)n3-c3cccc(F)c3)ncnc2s1 [Compound 78] as the compound, how does the IC50 (PI3Kδ) read?
Answer: The IC50 was 1 to 10 µM.

Question: What does the source list for Cc1nc2c(N[C@@H](C)c3cc4cccc(-c5cnn(C)c5)c4c(=O)n3-c3ccccc3)ncnc2s1 [Compound 79]?
Answer: IC50 (PI3Kδ): 1 to 10 µM; IC50 (PI3Kγ): 1 to 10 µM

Question: With C[C@H](Nc1ncnc2scnc12)c1cc2cccc(C(=O)O)c2c(=O)n1-c1ccccc1 [Compound 84] as the compound, how does the IC50 (PI3Kδ) read?
Answer: Its IC50 is 1 to 10 µM.

Question: What about the IC50 (PI3Kγ) of the same compound?
Answer: Its IC50 is 1 to 10 µM.

Question: What about the EC50 (Balb/c splenic B cells; Between 100 nM and 1 μM) of the same compound?
Answer: Its EC50 is 0.1 to 1 µM.

Question: For CC(C)n1c([C@H](C)Nc2ncnc3scnc23)cc2cccc(-c3ccc(=O)n(C)c3)c2c1=O [Compound 103], which IC50 (PI3Kα) is on record?
Answer: The IC50 was 1 to 10 µM.

Question: What about the IC50 (PI3Kβ) of the same compound?
Answer: The IC50 was 1 to 10 µM.

Question: What about the IC50 [1] of the same compound?
Answer: Its IC50 is less than 0.1 µM.

Question: What about the IC50 [2, 8] of the same compound?
Answer: Its IC50 is 0.1 to 1 µM.

Question: And the IC50 [3, 8]?
Answer: Its IC50 is 0.1 to 1 µM.

Question: And the IC50 [4, 8]?
Answer: The IC50 was 0.1 to 1 µM.

Question: Which IC50 (PI3Kα) does the source give for COc1ncc(-c2cccc3cc([C@H](C)Nc4ncnc5scnc45)n(-c4ccon4)c(=O)c23)cn1 [Compound 106] here?
Answer: Its IC50 is 1 to 10 µM.

Question: And the IC50 (PI3Kβ)?
Answer: The IC50 was 1 to 10 µM.

Question: What about the IC50 [1] of the same compound?
Answer: Its IC50 is less than 0.1 µM.

Question: What about the IC50 [2] of the same compound?
Answer: Its IC50 is 1 to 10 µM.

Question: And the IC50 [3, 8]?
Answer: The IC50 was 0.1 to 1 µM.

Question: What about the IC50 [4, 8] of the same compound?
Answer: Its IC50 is 0.1 to 1 µM.

Question: Which lupus symptoms (B6.Sle1z.Sle3z model) does the source give for CO[C@H]1C[C@@H]2CC[C@@H](C)[C@@](O)(O2)C(=O)C(=O)N2CCCC[C@H]2C(=O)O[C@H]([C@H](C)C[C@@H]2CC[C@@H](OCCO)[C@H](OC)C2)CC(=O)[C@H](C)/C=C(\C)[C@@H](O)[C@@H](OC)C(=O)[C@H](C)C[C@H](C)/C=C/C=C/C=C/1C [RAD001, everolimus] here?
Answer: The lupus symptoms was “ameliorate lupus symptoms”.

Question: Which chemical stability [5] does the source give for O=C(O)CCCc1ccc(N(CCCl)CCCl)cc1 [chlorambucil] here?
Answer: Its chemical stability is “largely hydrolyzed over the course of 24 hours”.

Question: With Cc1ccc(NC(=O)c2ccc(CN3CCN(C)CC3)cc2)cc1Nc1nccc(-c2cccnc2)n1 [imatinib, Imatinib Mesylate] as the compound, how does the leukemogenesis [6] read?
Answer: Its leukemogenesis is “delay but not cure leukemogenesis”.

Question: With CC(C)[N+](C)(CCOC(=O)C1c2ccccc2Oc2ccccc21)C(C)C [propantheline] as the compound, how does the plasma stability [7] read?
Answer: Its plasma stability is “intermediate plasma stability”.

Question: With CCCOc1cc(N)ccc1C(=O)OCCN(CC)CC [propoxycaine] as the compound, how does the plasma stability [7] read?
Answer: Its plasma stability is “low plasma stability”.
